Measurements from patent US8143296B2, “Thiazole-based compound and inhibitor of T-type calcium channel containing the same” (Korea Institute of Science and Technology, priority 2006, dated 2012).

Experiments:
[1] = molecular target: T1, α1G T-type calcium channel (Homo sapiens, UniProt O43497); test: Assay for % inhibiting activity against T-type calcium channel using FDSS6000; format: cell-based; settings: HEK293 cells expressing α1G; for inhibition at 10 µM: HEK293, 10 μM
T1 construct: host or cells: HEK293
Procedure: In the present invention, in order to search an efficient inhibitor against T-type calcium channel, a primary assay for T-type calcium channel inhibiting activity was conducted by a high-efficient assay using FDSS6000, wherein mammal HEK293 cell lines (originated from human kidney carcinoma cells) which specifically expresses α1G of T-type calcium channel was used for primary assay. Through the primary assay, compounds which show meaningful inhibition effects were selected. The selected compounds were used in a second assay for T-type calcium channel inhibiting activity using electrophysiological whole cell patch clamp method, wherein mammal HEK293 cell lines (originated from human kidney carcinoma cells) which specifically expresses α1G of T-type calcium channel was used for the second assay.
At 12-24 hours before being used for this assay, cells of HEK293 cell line (α1G cell line: KCTC 10519BP, Korean Collection for Type Cultures), which stably express α1G T-type calcium channel and Kir2.1, were sub-cultured in a poly-L-lysine treated 96-well plate with the density of 4×10^4 per a well using a 96-well cell dispenser (Titertek). On the of assay, the 96-well plate to which the cells were attached were washed three times with HEPES buffer solution (150 mM of NaCl, 5 mM of KCl, 1 mM of MgCl2, 2 mM of CaCl2, 10 mM of HEPES, 10 mM of glucose; pH 7.4) using a 96-well plate automatic washing device (Bio Tek), then reacted with HEPES buffer solution containing 5 μM fluo-3/AM and 0.001% Pluronic F-127 under room temperature for 1 hour, to label with fluorescent dye, and then further washed two times with HEPES buffer solution.
Thereafter, at 10 minutes before the measurement using device FDSS6000, a washing with HEPES buffer solution containing 10 mM CaCl2 was conducted once more, and the final volume was adjusted to 81 μl. Besides the above 96-well plate containing the cells, additional two drug 96-well plates were provided, wherein the 96-well plates contain inhibiting drug and KCl (final concentration: 75 mM) for activating T-type calcium channel, respectively. Since most of cell-based HTS devices are equipped with a liquid application system for injection of drug, but have no liquid sucking system, the inhibiting drug to be tested and KCl were respectively provided at the five-times higher concentration in 10 mM CaCl2 HEPES buffer solution at the amount of 27 μl, diluted five-times at the final cell plate volume of 135 μl, and then used in this test. The concrete method of measurement using FDSS6000 was as follows: After recording the reference value of 20 seconds, the change of intracellular Ca^2+ concentration which induced by treatment of the inhibiting drug to be tested for 75 seconds followed by administration of KCl was measured, wherein the percentage (%) inhibition effect of the test drug, through estimating the area of ratio value of 340/380 in the control without treatment of the test drug as 100%. As a reference drug, mibefradil was used.
For accurate calcium-imagination, the light source of 4 xenon lamps in FDSS6000 were radiated to make the cells exposed selectively to the excitation wavelength (340 nm and 380 nm) by computer-controlled filter wheel. Data was obtained at interval of each 1.23 second. The emitter fluorescence light inflowed through long-pass filter was obtained as an average 340/380 ratio value for each well in the 96-wells by using CCD camera and digital fluorescence analyzer in FDSS6000. All image data and analyses were obtained by using FDSS6000-exclusive program provide from Hamamatsu Photonics.

[2] = molecular target: T1, α1G T-type calcium channel; test: T-type calcium channel activity in HEK293 cells by electrophysiological whole cell patch clamp method; format: cell-based; settings: HEK293 cells expressing α1G
Procedure: The selected compounds were used in a second assay for T-type calcium channel inhibiting activity using electrophysiological whole cell patch clamp method, wherein mammal HEK293 cell lines (originated from human kidney carcinoma cells) which specifically expresses α1G of T-type calcium channel was used for the second assay. […] 10% Fetal bovine serum (FBS) and 1% penicillin/streptomycin (v/v) were added to Dulbecco's modified Eagle's medium (DMEM), to be used as a media solution. The cells were cultured in incubator under the wet condition of 95% air/5% CO2 and temperature of 36.5° C. The media solution was refreshed every 3 or 4 days, and the cells were sub-cultured every week. Only the cells which express α1G T-type calcium channel were cultured using G-418 (0.5 mg/ml) solution. The recording to the cells used in the T-type calcium channel activity analysis was conducted at 2-7 days after the cells were culturing on a cover slip coated with poly-L-lysine (0.5 mg/ml) when conducting every sub-culture. For analysis at a single cell level, the T-type calcium channel current was measured by an electrophysiological whole cell patch clamp method using EPC-9 amplifier (HEKA, German). […] Thereafter, the cell membrane potential was fixed to −100 mV, and then the inward current due to the T-type calcium channel activity when […] to −30 mV (50 ms duration) was measured every 10 seconds. […]

[3] = Table 3 (Chemical Formula 2 series)
[4] = Table 4 (Chemical Formula 3 series)

T1 sequence (O43497 whole entry): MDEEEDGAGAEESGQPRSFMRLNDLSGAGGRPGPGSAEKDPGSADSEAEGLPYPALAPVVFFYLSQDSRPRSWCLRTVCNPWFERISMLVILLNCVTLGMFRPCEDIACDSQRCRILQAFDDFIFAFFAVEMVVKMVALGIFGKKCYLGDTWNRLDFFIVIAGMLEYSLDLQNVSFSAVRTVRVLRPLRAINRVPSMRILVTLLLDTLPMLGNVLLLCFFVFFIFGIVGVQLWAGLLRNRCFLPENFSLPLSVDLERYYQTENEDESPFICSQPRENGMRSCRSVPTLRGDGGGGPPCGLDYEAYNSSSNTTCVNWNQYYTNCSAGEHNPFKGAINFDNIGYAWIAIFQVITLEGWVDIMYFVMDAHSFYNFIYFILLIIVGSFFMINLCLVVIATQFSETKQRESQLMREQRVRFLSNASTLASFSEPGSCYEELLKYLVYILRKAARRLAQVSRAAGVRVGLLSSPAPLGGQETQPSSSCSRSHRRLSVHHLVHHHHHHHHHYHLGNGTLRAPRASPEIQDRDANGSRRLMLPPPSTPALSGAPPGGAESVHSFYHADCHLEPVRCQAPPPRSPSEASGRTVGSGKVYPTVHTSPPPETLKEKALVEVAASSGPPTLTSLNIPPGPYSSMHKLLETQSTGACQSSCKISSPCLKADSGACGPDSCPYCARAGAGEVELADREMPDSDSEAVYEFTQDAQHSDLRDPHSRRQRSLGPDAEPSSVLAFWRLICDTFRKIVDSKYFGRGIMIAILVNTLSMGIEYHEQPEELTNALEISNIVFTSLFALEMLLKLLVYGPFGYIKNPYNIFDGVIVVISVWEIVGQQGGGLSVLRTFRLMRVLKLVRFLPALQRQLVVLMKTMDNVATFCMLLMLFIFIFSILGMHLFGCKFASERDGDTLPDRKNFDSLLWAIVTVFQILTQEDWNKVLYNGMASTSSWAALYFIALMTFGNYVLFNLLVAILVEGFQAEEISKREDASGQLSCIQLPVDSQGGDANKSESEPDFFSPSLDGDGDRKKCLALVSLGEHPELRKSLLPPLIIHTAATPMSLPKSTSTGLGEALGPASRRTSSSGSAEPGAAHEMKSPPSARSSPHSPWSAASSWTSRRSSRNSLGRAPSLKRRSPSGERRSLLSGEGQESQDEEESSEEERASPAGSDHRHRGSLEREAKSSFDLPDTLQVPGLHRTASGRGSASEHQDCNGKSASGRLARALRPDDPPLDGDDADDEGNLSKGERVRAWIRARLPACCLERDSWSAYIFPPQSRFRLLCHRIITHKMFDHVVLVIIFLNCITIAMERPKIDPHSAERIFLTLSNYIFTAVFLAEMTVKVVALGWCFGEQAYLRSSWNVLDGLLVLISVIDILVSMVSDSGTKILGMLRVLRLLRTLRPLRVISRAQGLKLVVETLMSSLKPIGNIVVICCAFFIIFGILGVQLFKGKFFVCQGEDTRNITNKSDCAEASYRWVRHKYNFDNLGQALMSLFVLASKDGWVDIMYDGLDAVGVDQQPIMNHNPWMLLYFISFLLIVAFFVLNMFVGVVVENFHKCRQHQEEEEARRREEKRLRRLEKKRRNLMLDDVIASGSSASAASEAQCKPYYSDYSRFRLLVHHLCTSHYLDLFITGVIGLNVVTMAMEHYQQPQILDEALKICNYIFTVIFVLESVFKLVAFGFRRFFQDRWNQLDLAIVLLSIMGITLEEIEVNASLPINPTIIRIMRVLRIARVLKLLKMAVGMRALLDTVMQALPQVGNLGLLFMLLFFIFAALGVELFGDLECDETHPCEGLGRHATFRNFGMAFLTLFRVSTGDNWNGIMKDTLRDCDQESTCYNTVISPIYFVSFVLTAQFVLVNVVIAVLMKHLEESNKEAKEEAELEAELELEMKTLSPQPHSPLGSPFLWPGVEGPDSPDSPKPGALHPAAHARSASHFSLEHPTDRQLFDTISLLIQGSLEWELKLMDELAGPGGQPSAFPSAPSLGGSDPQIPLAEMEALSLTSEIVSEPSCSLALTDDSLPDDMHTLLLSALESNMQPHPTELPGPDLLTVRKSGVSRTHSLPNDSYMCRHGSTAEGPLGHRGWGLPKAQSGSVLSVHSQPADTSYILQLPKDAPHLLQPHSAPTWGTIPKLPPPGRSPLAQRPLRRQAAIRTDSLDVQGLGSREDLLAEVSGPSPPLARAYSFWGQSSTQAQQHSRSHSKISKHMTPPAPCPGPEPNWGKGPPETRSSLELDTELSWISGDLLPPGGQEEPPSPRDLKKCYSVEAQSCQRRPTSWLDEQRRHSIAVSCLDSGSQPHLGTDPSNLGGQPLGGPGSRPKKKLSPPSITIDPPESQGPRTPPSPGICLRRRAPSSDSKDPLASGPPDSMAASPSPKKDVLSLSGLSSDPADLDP

| melting point [°C] | inhibition at 10 µM [1, 3] [%] | inhibition at 10 µM [1, 4] [%] | IC50 [2] [nM] | % Inhibition [α1G, 10 μM) using FDSS6000 ([1]; 10 μM, Table 3 (Chemical Formula 2 series), hydrochloride) [%] | SMILES |
| --- | --- | --- | --- | --- | --- |
| 219.7 to 220.5 | 18 |  |  |  | Cc1ccc(NC(=O)Cc2csc(N=C(N)N)n2)c(Br)c1.Cl [KHG23191, N-(2-bromo-4-methylphenyl)-2-(2-(diaminomethyleneamino)thiazole-4-yl)acetamide hydrochloride] |
| 209.3 to 210 | 27.6 |  |  |  | Cl.NC(N)=Nc1nc(CC(=O)Nc2cc(Cl)ccc2F)cs1 [KHG23172, N-(5-chloro-2-fluorophenyl)-2-(2-(diaminomethyleneamino)thiazole-4-yl)acetamide hydrochloride] |
| 210.4 |  | 10.8 |  |  | Br.NC(N)=Nc1nc(-c2cccc(Cl)c2)cs1 [KHG24388, 2-(4-(3-chlorophenyl)thiazole-2-yl)guanidine hydrobromide] |
| 233.3 |  | 21.2 |  |  | Cl.NC(N)=Nc1nc(-c2ccc3c(c2)OCC(=O)N3)cs1 [KHG24037, 2-(4-(3-oxo-3,4-dihydro-2H-benzo[b][1,4]oxazine-7-yl)thiazole-2-yl)guanidine hydrochloride] |
| 218.6 to 220 | 18.8 |  |  |  | Cc1ccc(NC(=O)Cc2csc(N=C(N)N)n2)c(Cl)c1.Cl [KHG23174, N-(2-chloro-4-methylphenyl)-2-(2-(diaminomethyleneamino)thiazole-4-yl)acetamide hydrochloride] |
| 300.3 |  | 14.2 |  |  | Cl.NC(N)=Nc1nc(-c2ccc(-c3ccccc3)cc2)cs1 [KHG24038, 2-(4-(biphenyl-4-yl)thiazole-2-yl)guanidine hydrochloride] |
| 234.8 |  | 17.1 |  |  | Br.CCc1ccc(-c2csc(N=C(N)N)n2)cc1 [KHG24387, 2-(4-(4-ethylphenyl)thiazole-2-yl)guanidine hydrobromide] |
| 264.9 |  | 13 |  |  | Cl.NC(N)=Nc1nc(-c2ccc(Cl)cc2)cs1 [KHG24024, 2-(4-(4-chlorophenyl)thiazole-2-yl)guanidine hydrochloride] |
| 169.3 to 170.1 | 19.3 |  |  |  | Cc1ccc(CCNC(=O)Cc2csc(N=C(N)N)n2)cc1.Cl [KHG23188, 2-(2-(diaminomethyleneamino)thiazole-4-yl)-N-(4-methylphenethyl)acetamide hydrochloride] |
|  |  |  | 780 ± 80 |  | NC(N)=Nc1nc(CC(=O)Nc2cc(C(F)(F)F)cc(C(F)(F)F)c2)cs1 [drawing 11] |
| 232.8 to 233.9 | 23.2 |  |  |  | Cl.NC(N)=Nc1nc(CC(=O)Nc2ccc(F)cc2Cl)cs1 [KHG23169, N-(2-chloro-4-fluorophenyl)-2-(2-(diaminomethyleneamino)thiazole-4-yl)acetamide hydrochloride] |
| 206.9 to 207.6 | 19.3 |  |  |  | Cl.NC(N)=Nc1nc(CC(=O)NCc2ccc(F)c(F)c2)cs1 [KHG23189, 2-(2-(diaminomethyleneamino)thiazole-4-yl)-N-(3,4-difluorobenzyl)acetamide hydrochloride] |
| 218.4 to 219.4 | 20.5 |  |  |  | Cl.N#Cc1ccc(NC(=O)Cc2csc(N=C(N)N)n2)cc1 [KHG23176, N-(4-cyanophenyl)-2-(2-(diaminomethyleneamino)thiazole-4-yl)acetamide hydrochloride] |
| 252.1 |  | 20.8 |  |  | Br.NC(N)=Nc1nc(-c2cc(F)ccc2F)cs1 [KHG24391, 2-(4-(2,5-difluorophenyl)thiazole-2-yl)guanidine hydrobromide] |
| 207.3 to 208.2 | 21.5 |  |  |  | Cl.NC(N)=Nc1nc(CC(=O)Nc2ccc(F)cc2)cs1 [KHG23171, 2-(2-(diaminomethyleneamino)thiazole-4-yl)-N-(4-fluorophenyl)acetamide hydrochloride] |
| 242.1 to 242.6 | 16.8 |  |  |  | CCOc1ccc(NC(=O)Cc2csc(N=C(N)N)n2)cc1.Cl [KHG23192, N-(4-ethoxyphenyl)-2-(2-(diaminomethyleneamino)thiazole-4-yl)acetamide hydrochloride] |
| 209.5 |  | 19.6 |  |  | Br.NC(N)=Nc1nc(-c2ccccc2)cs1 [KHG24380, 2-(4-phenylthiazole-2-yl)guanidine hydrobromide] |
| 238.6 to 240.4 |  |  |  | 30.68 | Cc1ccc(NC(=O)Cc2csc(N=C(N)N)n2)cc1Cl.Cl [KHG23170, N-(3-chloro-4-methylphenyl)-2-(2-(diaminomethyleneamino)thiazole-4-yl)acetamide hydrochloride] |
| 232.4 |  | 22.3 |  |  | Br.Cc1cccc(-c2csc(N=C(N)N)n2)c1 [KHG24382, 2-(4-m-tolylthiazole-2-yl)guanidine hydrobromide] |
| 242.1 |  | 21.6 |  |  | Br.NC(N)=Nc1nc(-c2cccc(F)c2)cs1 [KHG24383, 2-(4-(3-fluorophenyl)thiazole-2-yl)guanidine hydrobromide] |
|  |  |  | 310 ± 220 |  | NC(N)=Nc1nc(CC(=O)Nc2cc(Cl)cc(Cl)c2)cs1 |
| 211.9 |  | 21.7 |  |  | Br.NC(N)=Nc1nc(-c2ccccc2Cl)cs1 [KHG24373, 2-(4-(2-chlorophenyl)thiazole-2-yl)guanidine hydrobromide] |
